Assay results published in US9200005B2, “Inhibitor compounds of phosphodiesterase type 10A” (AbbVie Deutschland GmbH & Co. KG, priority 2013, dated 2015).

Assays:
PDE10A = PDE10A (UniProt Q9Y233); test: Measurement of PDE activity (HTRF cAMP kit, recombinant PDE10A); type: biochemical, human, rat and mouse; settings: substrate 20 nM, 60 minutes at 29° C.
Protocol: a) Measurement of PDE Activity
The recombinant PDE proteins are used in in vitro enzymatic reaction for measurement of PDE activity. These recombinant proteins, including PDE10A (human, rat and mouse PDE10) and isoforms of PDEs 1, 3, 4, and 5, were purchased from commercial vendor BPS Bioscience. The enzymatic activity of PDEs was determined by cAMP measurement kit from CisBio (IBA) using HTRF technology.
The PDE enzymatic reaction was carried out in assay buffer (20 mM Tris-HCl pH 7.5, 10 mM MgCl2, 0.1% bovine serum albumin) containing enzyme and substrate. […] The substrate cyclic nucleotide (cAMP or cGMP) concentration used in the assay was 20 nM for PDE10, and 100 nM for other PDEs. The inhibitory effect of compound was determined by incubating various concentration of inhibitor in the enzymatic assay. […] Next, the compound at varying concentration was mixed with PDE enzyme. The reaction was initiated by addition of cyclic nucleotide substrate, and incubated for 60 minutes at 29° C. The reaction was stopped by addition of lysis buffer from the assay kit. The cAMP-d2 and anti-cAMP cryptate in the lysis buffer detected the level of cAMP left from the PDE hydrolysis reaction. […] Thus, IC50 value of inhibitor can be obtained by plotting inhibitor concentration against PDE activity at that concentration.

[1] = Determination of the microsomal half-life / microsomal clearance, rat liver microsomes; type: in vitro ADME; settings: 0.5 μM test substance, 0.25 mg of microsomal protein/mL, NADPH, 37° C.
Procedure, shortened: (§1)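 Compound (0.5 μM) was preincubated 5 min at 37 °C with rat or human liver microsomes (0.25 mg protein/mL) in 0.05 M phosphate pH 7.4, and NADPH (1 mg/mL) was then added. Samples taken at 0-30 min and quenched with acetonitrile were analysed by MS/MS. T½ was derived assuming first-order decay, and clearance […] was calculated from T½ and protein content.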

[2] = Determination of the microsomal half-life / microsomal clearance, human liver microsomes; type: in vitro ADME; settings: 0.5 μM test substance, 0.25 mg of microsomal protein/mL, NADPH, 37° C.
Procedure, shortened: as §1

Compound | IC50 (PDE10A) | Rat mCl [1] | Human mCl [2]
Cn1nc(OCc2ccccc2)c2scc(-c3ccncc3)c2c1=O [Example 54, 7-(benzyloxy)-5-methyl-3-(pyridin-4-yl)thieno[2,3-d]pyridazin-4(5H)-one] | 100 to 200 nM | + (+: 100-220 μl min^−1 mg^−1) | ++ (++: <100 μl min^−1 mg^−1)
Cn1nc(OCc2ccccn2)c2scc(-c3ccncc3)c2c1=O [Example 55, 5-methyl-3-(pyridin-4-yl)-7-(pyridin-2-ylmethoxy)thieno[2,3-d]pyridazin-4(5H)-one] | 100 to 200 nM | + (+: 100-220 μl min^−1 mg^−1) | ++ (++: <100 μl min^−1 mg^−1)
Cn1nc(OCc2nccs2)c2scc(-c3ccncc3)c2c1=O [Example 58, 5-methyl-3-(pyridin-4-yl)-7-(1,3-thiazol-2-ylmethoxy)thieno[2,3-d]pyridazin-4(5H)-one] | < 100 nM | ++ (++: <100 μl min^−1 mg^−1) | ++ (++: <100 μl min^−1 mg^−1)
Cn1nc(OCc2cccc(C#N)c2)c2scc(-c3ccncc3)c2c1=O.O=C(O)C(F)(F)F [Example 59, 3-({[5-methyl-4-oxo-3-(pyridin-4-yl)-4,5-dihydrothieno[2,3-d]pyridazin-7-yl]oxy}methyl)benzonitrile trifluoroacetate] | < 100 nM | ++ (++: <100 μl min^−1 mg^−1) | ++ (++: <100 μl min^−1 mg^−1)
COc1cccc(COc2nn(C)c(=O)c3c(-c4ccncc4)csc23)c1 [Example 61, 7-[(3-methoxybenzyl)oxy]-5-methyl-3-(pyridin-4-yl)thieno[2,3-d]pyridazin-4(5H)-one] | 100 to 200 nM | + (+: 100-220 μl min^−1 mg^−1) | ++ (++: <100 μl min^−1 mg^−1)
Cn1nc(OCc2ccc(Cl)cc2)c2scc(-c3ccncc3)c2c1=O [Example 62, 7-[(4-chlorobenzyl)oxy]-5-methyl-3-(pyridin-4-yl)thieno[2,3-d]pyridazin-4(5H)-one] | 200 to 500 nM | ++ (++: <100 μl min^−1 mg^−1) | ++ (++: <100 μl min^−1 mg^−1)
Cn1nc(OCc2coc3ccccc23)c2scc(-c3ccncc3)c2c1=O [Example 63, 7-(1-benzofuran-3-ylmethoxy)-5-methyl-3-(pyridin-4-yl)thieno[2,3-d]pyridazin-4(5H)-one] | 100 to 200 nM | ++ (++: <100 μl min^−1 mg^−1) | ++ (++: <100 μl min^−1 mg^−1)
Cn1nc(OCc2cccc3ccoc23)c2scc(-c3ccncc3)c2c1=O [Example 64, 7-(1-benzofuran-7-ylmethoxy)-5-methyl-3-(pyridin-4-yl)thieno[2,3-d]pyridazin-4(5H)-one] | 100 to 200 nM | ++ (++: <100 μl min^−1 mg^−1) | ++ (++: <100 μl min^−1 mg^−1)
Cn1nc(OCc2cccc(C(N)=O)c2)c2scc(-c3ccncc3)c2c1=O.O=C(O)C(F)(F)F [Example 67, 3-({[5-methyl-4-oxo-3-(pyridin-4-yl)-4,5-dihydrothieno[2,3-d]pyridazin-7-yl]oxy}methyl)benzamide trifluoroacetate] | < 100 nM | ++ (++: <100 μl min^−1 mg^−1) | ++ (++: <100 μl min^−1 mg^−1)
Cn1nc(OCc2ccc3c(c2)OCO3)c2scc(-c3ccncc3)c2c1=O [Example 69, 7-(1,3-benzodioxol-5-ylmethoxy)-5-methyl-3-(pyridin-4-yl)thieno[2,3-d]pyridazin-4(5H)-one] | 100 to 200 nM | + (+: 100-220 μl min^−1 mg^−1) | ++ (++: <100 μl min^−1 mg^−1)
Cn1nc(OCc2nc3ccccc3n2C)c2scc(-c3ccncc3)c2c1=O [Example 70, 5-methyl-7-[(1-methyl-1H-benzimidazol-2-yl)methoxy]-3-(pyridin-4-yl)thieno[2,3-d]pyridazin-4(5H)-one] | < 100 nM | + (+: 100-220 μl min^−1 mg^−1) | + (+: 100-220 μl min^−1 mg^−1)
CC(C)Oc1cccc(COc2nn(C)c(=O)c3c(-c4ccncc4)csc23)c1 [Example 73, 5-methyl-7-{[3-(propan-2-yloxy)benzyl]oxy}-3-(pyridin-4-yl)thieno[2,3-d]pyridazin-4(5H)-one] | 200 to 500 nM | ++ (++: <100 μl min^−1 mg^−1) | ++ (++: <100 μl min^−1 mg^−1)
COc1ccccc1Oc1nn(C)c(=O)c2c(-c3ccncc3)csc12.O=C(O)C(F)(F)F [Example 84, 7-(2-methoxyphenoxy)-5-methyl-3-(pyridin-4-yl)thieno[2,3-d]pyridazin-4(5H)-one trifluoroacetate] | 100 to 200 nM | ∘ (∘ not avialable or >220 μl min^−1 mg^−1) | ++ (++: <100 μl min^−1 mg^−1)

The next lines start with the values.

IC50 (PDE10A) | Rat mCl [1] | Human mCl [2] | Compound
< 100 nM | ++ (++: <100 μl min^−1 mg^−1) | + (+: 100-220 μl min^−1 mg^−1) | COc1cc(COc2nn(C)c(=O)c3c(-c4ccncc4)csc23)cc(OC)c1 [Example 75, 7-[(3,5-dimethoxybenzyl)oxy]-5-methyl-3-(pyridin-4-yl)thieno[2,3-d]pyridazin-4(5H)-one]
< 100 nM | ++ (++: <100 μl min^−1 mg^−1) | ++ (++: <100 μl min^−1 mg^−1) | Cn1nc(OCc2cccc(OC(F)F)c2)c2scc(-c3ccncc3)c2c1=O [Example 76, 7-{[3-(difluoromethoxy)benzyl]oxy}-5-methyl-3-(pyridin-4-yl)thieno[2,3-d]pyridazin-4(5H)-one]
< 100 nM | + (+: 100-220 μl min^−1 mg^−1) | ++ (++: <100 μl min^−1 mg^−1) | CC(Oc1nn(C)c(=O)c2c(-c3ccncc3)csc12)c1nc2ccccc2n1C (stereo not drawn) [Example 78, 5-methyl-7-[1-(1-methyl-1H-benzimidazol-2-yl)ethoxy]-3-(pyridin-4-yl)thieno[2,3-d]pyridazin-4(5H)-one]
200 to 500 nM | ++ (++: <100 μl min^−1 mg^−1) | ++ (++: <100 μl min^−1 mg^−1) | Cn1nc(Oc2ccccc2)c2scc(-c3ccncc3)c2c1=O [Example 81, 5-methyl-7-phenoxy-3-(pyridin-4-yl)thieno[2,3-d]pyridazin-4(5H)-one]
200 to 500 nM | ++ (++: <100 μl min^−1 mg^−1) | ++ (++: <100 μl min^−1 mg^−1) | Cn1nc(Oc2cccnc2)c2scc(-c3ccncc3)c2c1=O [Example 82, 5-methyl-3-(pyridin-4-yl)-7-(pyridin-3-yloxy)thieno[2,3-d]pyridazin-4(5H)-one]
100 to 200 nM | ++ (++: <100 μl min^−1 mg^−1) | + (+: 100-220 μl min^−1 mg^−1) | Cn1nc(Oc2ccccc2C#N)c2scc(-c3ccncc3)c2c1=O.O=C(O)C(F)(F)F [Example 83, 2-{[5-methyl-4-oxo-3-(pyridin-4-yl)-4,5-dihydrothieno[2,3-d]pyridazin-7-yl]oxy}benzonitrile trifluoroacetate]
100 to 200 nM | ++ (++: <100 μl min^−1 mg^−1) | ++ (++: <100 μl min^−1 mg^−1) | COc1cccc(Oc2nn(C)c(=O)c3c(-c4ccncc4)csc23)c1 [Example 85, 7-(3-methoxyphenoxy)-5-methyl-3-(pyridin-4-yl)thieno[2,3-d]pyridazin-4(5H)-one]
200 to 500 nM | + (+: 100-220 μl min^−1 mg^−1) | ++ (++: <100 μl min^−1 mg^−1) | COc1ccc(Oc2nn(C)c(=O)c3c(-c4ccncc4)csc23)cc1 [Example 86, 7-(4-methoxyphenoxy)-5-methyl-3-(pyridin-4-yl)thieno[2,3-d]pyridazin-4(5H)-one]
< 100 nM | ++ (++: <100 μl min^−1 mg^−1) | ++ (++: <100 μl min^−1 mg^−1) | COc1cncc(Oc2nn(C)c(=O)c3c(-c4ccncc4)csc23)c1.O=C(O)C(F)(F)F.O=C(O)C(F)(F)F [Example 88, 7-[(5-methoxypyridin-3-yl)oxy]-5-methyl-3-(pyridin-4-yl)thieno[2,3-d]pyridazin-4(5H)-one bis(trifluoroacetate)]
200 to 500 nM | + (+: 100-220 μl min^−1 mg^−1) | ++ (++: <100 μl min^−1 mg^−1) | Cn1nc(Oc2ccc3c(c2)OCO3)c2scc(-c3ccncc3)c2c1=O [Example 89, 7-(1,3-benzodioxol-5-yloxy)-5-methyl-3-(pyridin-4-yl)thieno[2,3-d]pyridazin-4(5H)-one]
< 100 nM | ++ (++: <100 μl min^−1 mg^−1) | ++ (++: <100 μl min^−1 mg^−1) | COc1ccc(Oc2nn(C)c(=O)c3c(-c4ccncc4)csc23)cc1OC [Example 91, 7-(3,4-dimethoxyphenoxy)-5-methyl-3-(pyridin-4-yl)thieno[2,3-d]pyridazin-4(5H)-one]
< 100 nM | ++ (++: <100 μl min^−1 mg^−1) | + (+: 100-220 μl min^−1 mg^−1) | COc1cc(OC)cc(Oc2nn(C)c(=O)c3c(-c4ccncc4)csc23)c1 [Example 92, 7-(3,5-dimethoxyphenoxy)-5-methyl-3-(pyridin-4-yl)thieno[2,3-d]pyridazin-4(5H)-one]
